This is an account of results in patent US9994581B2, “Bromodomain inhibitors” (AbbVie Inc., priority 2013, dated 2018).

Read-outs that look alike come from different tables or passages of the source.

Experiment [1] has as its system breast cancer cell line MX-1. Kind of experiment: MX-1 cell line proliferation assay (3-day, Cell Titer Glo). It is filed as cell-based. The settings on record: 72 hours, read-out: Cellular proliferation: EC50. In short, it runs like this: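 MX-1 cells plated at 5000 cells/well and adhered overnight at 37°, then treated for 3 days with 10-point 3-fold dilutions (final top 3 or 1 μM). Viability by Cell Titer Glo luminescence normalized to DMSO-treated cells; EC50 from sigmoidal curve fit.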
For orientation: ATP-based viability assays read luminescence as a measure of living cells.

The target in another experiment is BRD4 (BDI-BDII_K57-K550) (Homo sapiens, UniProt O60885). Kind of experiment: TR-FRET bromodomain binding assay. Particulars: His-tagged tandem bromodomain, Alexa647-labeled probe; Ki calculated from IC50s, probe Kd and probe concentration.
In experiment [2] the test system is LPS induced IL-6 (Interleukin-6) production. Kind of experiment: LPS (lipopolysaccharide) induced IL-6 production mouse assay. The settings on record: oral administration one hour before LPS 2.5 mg/kg i.p., serum IL-6 2 hours after LPS, p < 0.05.
Procedure: Compounds of the Examples listed in Table 2 were assayed for their ability to inhibit LPS (lipopolysaccharide) induced IL-6 (Interleukin-6) production in mice. Fox Chase SCID® female mice (Charles Rivers Labs, 8 per group) or CD1 female mice received an intraperitoneal challenge of lipopolysaccharide (2.5 mg/kg, L2630 E. coli 0111:B4) one hour after oral administration of compounds. Mice were euthanized 2 hours after lipopolysaccharide injection, blood was removed by cardiac puncture, and then the serum harvested from the blood samples was frozen at −80° C. On the day of the assay the serum samples were brought to room temperature and then diluted 1:20 in phosphate-buffered saline containing 2% bovine serum albumin. Interleukin-6 measurements were performed using a cytokine assay from Meso Scale Discovery (Gaithersburg, Md.) for mouse serum analysis according to the manufacturer's protocol and read on a SECTOR Imager 6000 (Meso Scale Discovery, Gaithersburg, Md.) instrument. Statistical analysis was performed using Prism software (version 5.0) incorporating Dunnett's one way ANOVA. The IL-6 mean and standard deviation of the group of vehicle treated animals were compared with the IL-6 mean and standard deviation of the group treated with drug.

The term Ki denotes the dissociation constant of the complex between target and ligand, obtained from inhibition or displacement. Turning to `CCS(=O)(=O)Nc1ccc2c(c1)-c1cn(C)c(=O)cc1OCCCc1cc(F)cc(F)c1O2` [Example A-6, N-(10,12-difluoro-2-methyl-3-oxo-3,6,7,8-tetrahydro-2H-dibenzo[4,5:7,8][1,6]dioxacycloundecino[3,2-c]pyridin-16-yl)ethanesulfonamide], the EC50 in experiment [1] (Homo sapiens, MX1, MX-1 cells) was found to be 9.6 nM. The Ki on BRD4 (BDI-BDII_K57-K550) is 1.51 nM. Also, the “Inhibition of LPS induced IL-6 production, % inhibition” value (“Inhibition … % inhibition” for short) in experiment [2] (CD1 mouse strain) turned out to be 86%.
The corresponding values for `CCS(=O)(=O)c1ccc2c(c1)-c1cn(C)c(=O)cc1OCCCCc1cc(Cl)ccc1O2` [Example A-13, 11-chloro-17-(ethylsulfonyl)-2-methyl-6,7,8,9-tetrahydrodibenzo[4,5:7,8][1,6]dioxacyclododecino[3,2-c]pyridin-3(2H)-one] are 13.6 nM, 0.99 nM and 82%.
The like results for `CCS(=O)(=O)c1ccc2c(c1)-c1cn(C)c(=O)cc1OCCCCc1cc(F)cc(F)c1O2` [Example A-20, 17-(ethylsulfonyl)-11,13-difluoro-2-methyl-6,7,8,9-tetrahydrodibenzo[4,5:7,8][1,6]dioxacyclododecino[3,2-c]pyridin-3(2H)-one] were, in that order, 8.69 nM, 1.25 nM and 81%.
For `CCS(=O)(=O)Nc1ccc2c(c1)-c1cn(C)c(=O)cc1OCCCCc1cc(F)cc(F)c1O2` [Example A-14, N-(11,13-difluoro-2-methyl-3-oxo-2,3,6,7,8,9-hexahydrodibenzo[4,5:7,8][1,6]dioxacyclododecino[3,2-c]pyridin-17-yl)ethanesulfonamide], the “Inhibition … % inhibition” value in experiment [2] (CD1 mouse strain) is reported as 77%.
In the case of `Cn1cc2c(cc1=O)OCCCc1cc(Cl)ccc1Oc1ccc(NS(C)(=O)=O)cc1-2` [Example A-12, N-(10-chloro-2-methyl-3-oxo-3,6,7,8-tetrahydro-2H-dibenzo[4,5:7,8][1,6]dioxacycloundecino[3,2-c]pyridin-16-yl)methanesulfonamide], the EC50 in experiment [1] (Homo sapiens, MX1, MX-1 cells) was 19.1 nM. Moreover, on BRD4 (BDI-BDII_K57-K550), the Ki was 2.16 nM. In addition, the “Inhibition … % inhibition” value in experiment [2] (CD1 mouse strain) is on record as 47%.
Take `CCS(=O)(=O)Nc1ccc2c(c1)-c1cn(C)c(=O)cc1OCCCc1cc(Cl)ccc1O2` [Example A-5, N-(10-chloro-2-methyl-3-oxo-3,6,7,8-tetrahydro-2H-dibenzo[4,5:7,8][1,6]dioxacycloundecino[3,2-c]pyridin-16-yl)ethanesulfonamide]: the EC50 in experiment [1] (Homo sapiens, MX1, MX-1 cells) came out at 12.8 nM. Also, on BRD4 (BDI-BDII_K57-K550), the Ki was 1.3 nM. Further, the “Inhibition … % inhibition” value in experiment [2] (SCID mouse strain) came to 73%.
Regarding “17-(ethylsulfonyl)-11-fluoro-2-methyl-6,7,8,9-tetrahydrodibenzo[4,5:7,8][1,6]dioxacyclododecino[3,2-c]pyridin-3(2H)-one [Example A-22]”, the EC50 in experiment [1] (MX-1 cells) is 9 nM. The Ki at BRD4 (BDI-BDII_K57-K550) is 1.51 nM. Also, in experiment [2] (CD1 mouse strain), the “Inhibition … % inhibition” value amounted to 83%.
Turning to `CCS(=O)(=O)Nc1ccc2c(c1)-c1cn(C)c(=O)cc1OCCOCc1cc(Cl)ccc1O2` [Example B-5, N-(11-chloro-2-methyl-3-oxo-2,3,6,7-tetrahydro-9H-dibenzo[6,7:9,10][1,4,8]trioxacyclododecino[11,12-c]pyridin-17-yl)ethanesulfonamide], the EC50 in experiment [1] (Homo sapiens, MX1, MX-1 cells) was 2.79 nM. The inhibitory constant (Ki) at BRD4 (BDI-BDII_K57-K550) was 1.19 nM. The “Inhibition … % inhibition” value in experiment [2] (CD1 mouse strain) was found to be 61%.
In the case of `CCN1CCOc2cc(=O)n(C)cc2-c2cc(NS(=O)(=O)CC)ccc2Oc2ccc(Cl)cc2C1` [Example B-1, N-(11-chloro-8-ethyl-2-methyl-3-oxo-2,3,6,7,8,9-hexahydrodibenzo[f,i]pyrido[3,4-k][1,8,4]dioxazacyclododecin-17-yl)ethanesulfonamide], the EC50 in experiment [1] (Homo sapiens, MX1, MX-1 cells) is 8.77 nM. On BRD4 (BDI-BDII_K57-K550), the Ki is 15.1 nM. The “Inhibition … % inhibition” value in experiment [2] (CD1 mouse strain) was 43%.
Consider `CCS(=O)(=O)Nc1ccc2c(c1)-c1cn(C)c(=O)cc1OCCCCc1cc(Cl)ccc1O2` [Example A-9, N-(11-chloro-2-methyl-3-oxo-2,3,6,7,8,9-hexahydrodibenzo[4,5:7,8][1,6]dioxacyclododecino[3,2-c]pyridin-17-yl)ethanesulfonamide], for which, in experiment [1] (Homo sapiens, MX1, MX-1 cells), the EC50 came out at 5.69 nM. Also, the Ki at BRD4 (BDI-BDII_K57-K550) was 0.93 nM. For the same molecule, in experiment [2] (CD1 mouse strain), the “Inhibition … % inhibition” value was determined as 83%.
The corresponding values for `Cn1cc2c(cc1=O)OCCCCc1cc(Cl)ccc1Oc1ccc(CS(C)(=O)=O)cc1-2` [Example A-36, 11-chloro-2-methyl-17-((methylsulfonyl)methyl)-6,7,8,9-tetrahydrodibenzo[4,5:7,8][1,6]dioxacyclododecino[3,2-c]pyridin-3(2H)-one] are 19.2 nM, 2.85 nM and 68%.
For the molecule `CCS(=O)(=O)Nc1cnc2c(c1)-c1cn(C)c(=O)cc1OCCCCc1cc(Cl)ccc1O2` [Example A-33, N-(11-chloro-2-methyl-3-oxo-2,3,6,7,8,9-hexahydrobenzo[11,12][1,6]dioxacyclododecino[2,3-b:4,5-c′]dipyridin-17-yl)ethanesulfonamide], in experiment [1] (Homo sapiens, MX1, MX-1 cells), the EC50 was 5.68 nM. The Ki on BRD4 (BDI-BDII_K57-K550) was 1.45 nM. Further, in experiment [2] (CD1 mouse strain), the “Inhibition … % inhibition” value was found to be 74%.
Take `CCS(=O)(=O)c1ccc2c(c1)-c1cn(C)c(=O)cc1OCCCc1cc(Cl)ccc1O2` [Example A-3, 10-chloro-16-(ethylsulfonyl)-2-methyl-7,8-dihydro-2H-dibenzo[4,5:7,8][1,6]dioxacycloundecino[3,2-c]pyridin-3(6H)-one]: the EC50 in experiment [1] (Homo sapiens, MX1, MX-1 cells) is 31.1 nM. The Ki on BRD4 (BDI-BDII_K57-K550) was 7.54 nM. In addition, the “Inhibition … % inhibition” value in experiment [2] (SCID mouse strain) is listed as 78%.
